Assay results: patent publication US9695133B2, “Quinazolinone-based oncogenic-RAS-selective lethal compounds and their use” (THE TRUSTEES OF COLUMBIA UNIVERSITY IN THE CITY OF NEW YORK, priority 2012, dated 2017)
Where “and” joins values, the source holds several entries; their conditions need not be identical. Equal values may be shown once. Read-outs that look alike come from different tables or passages of the source.

How the values were obtained:
[1] = Plasma pharmacokinetics after single IV and PO dose; format: in vivo, male C57BL6/j mice; conditions: for Plasma Concentration, individual mice / concentration at 0.5 hr / concentration at 1 hr / concentration at 2 hr / concentration at 4 hr / concentration at 8 hr / concentration at 12 hr / Vd: 20 mg/kg; for MRT inf: read-out: MRT(0-∞)
Method: Three mice in each group were used for blood collection at each time point. Blood samples (approximately 400 μL) were collected after euthanasia using carbon dioxide inhalation via cardiac puncture pre-dose and 30 minutes, 1 hour, 2 hours, 4 hours, 8 hours and 12 hours post-dose. Blood samples were placed into tubes containing sodium heparin and centrifuged at 8000 rpm for 6 minutes at 4° C. to separate plasma from the blood samples. Following centrifugation, the resulting plasma was transferred to clean tubes and stored frozen at −80° C. until bioanalysis by the Testing Facility.

[2] = Postdose observations in the pharmacokinetic study; format: in vivo, male C57BL6/j mice; conditions: single 20 mg/kg IV or PO
[3] = male, C57BL6/j, mouse, in vivo, po, 20 mg/kg
in vivo = conditions: male, C57BL6/j, mouse, 20 mg/kg
BJeLR cells = assay: RSL testing: growth inhibition (alamar blue) in BJeLR cells; format: cell-based; conditions: Homo sapiens, BJeLR
Method: Cell viability was determined using alamar blue and percent growth inhibition computed as described previously (Id.).

[4] = male, C57BL6/j, mouse, plasma, IV 20 mg/kg
[5] = male, C57BL6/j, mouse, plasma, PO 20 mg/kg
[6] = iv, Brain Concentration, individual mice
[7] = iv, Brain-Plasma Concentration Ratio, Mean
[8] = iv, Brain-Plasma Concentration Ratio, individual mice
[9] = po, Brain Concentration, individual mice
[10] = po, Brain-Plasma Concentration Ratio, Mean
[11] = po, Brain-Plasma Concentration Ratio, individual mice

CC(C)Oc1ccc(CN2CCNCC2)cc1-n1c(CN2CCN(C(=O)COc3ccc(Cl)cc3)CC2)nc2ccccc2c1=O [PE, 2-((4-(2-(4-chlorophenoxy)ethanoyl)piperazin-1-yl)methyl)-3-(2-isopropoxy-5-(piperazin-1-ylmethyl)phenyl)quinazolin-4(3H)-one]
Plasma Concentration, individual mice ([1]; IV 20 mg/kg, 0.5 hr): 4625.87 ng/mL and 2218.81 ng/mL and 2826.92 ng/mL | Plasma Concentration, individual mice ([1]; IV 20 mg/kg, 1 hr): 1548.38 ng/mL and 657.50 ng/mL and 1509.78 ng/mL | Plasma Concentration, individual mice ([1]; IV 20 mg/kg, 2 hr): 1016.04 ng/mL and 1054.66 ng/mL | Plasma Concentration, individual mice ([1]; IV 20 mg/kg, 4 hr): 200.14 ng/mL and 657.19 ng/mL and 379.24 ng/mL | Plasma Concentration, individual mice ([1]; IV 20 mg/kg, 8 hr): 105.57 ng/mL and 148.67 ng/mL | Plasma Concentration, individual mice ([1]; IV 20 mg/kg, 12 hr): 34.53 ng/mL and 159.78 ng/mL and 96.08 ng/mL | Plasma Concentration, individual mice ([1]; PO 20 mg/kg, 0.5 hr): 365.89 ng/mL and 403.60 ng/mL and 87.63 ng/mL | Plasma Concentration, individual mice ([1]; PO 20 mg/kg, 1 hr): 1635.86 ng/mL and 1288.53 ng/mL | Plasma Concentration, individual mice ([1]; PO 20 mg/kg, 2 hr): 1260.55 ng/mL and 527.50 ng/mL and 1016.24 ng/mL | Plasma Concentration, individual mice ([1]; PO 20 mg/kg, 4 hr): 642.39 ng/mL and 669.76 ng/mL | Plasma Concentration, individual mice ([1]; PO 20 mg/kg, 8 hr): 23.99 ng/mL and 28.91 ng/mL | Plasma Concentration, individual mice ([1]; PO 20 mg/kg, 12 hr): 21.10 ng/mL and 15.06 ng/mL | concentration at 0.5 hr ([1]; male, C57BL6/j, mouse, plasma, iv, IV 20 mg/kg, 0.5 hr): 3220 ng/mL | concentration at 1 hr ([1]; male, C57BL6/j, mouse, plasma, iv, IV 20 mg/kg, 1 hr, read-out: Plasma Concentration, Mean): 1240 ng/mL | concentration at 2 hr ([1]; male, C57BL6/j, mouse, plasma, iv, IV 20 mg/kg, 2 hr, read-out: Plasma Concentration, Mean): 997 ng/mL | concentration at 2 hr ([1]; male, C57BL6/j, mouse, plasma, iv, IV 20 mg/kg, 2 hr, read-out: Plasma Concentration, individual mice): 920 ng/mL | concentration at 4 hr ([1]; male, C57BL6/j, mouse, plasma, iv, IV 20 mg/kg, 4 hr, read-out: Plasma Concentration, Mean): 412 ng/mL | concentration at 8 hr ([1]; male, C57BL6/j, mouse, plasma, iv, IV 20 mg/kg, 8 hr, read-out: Plasma Concentration, Mean): 134 ng/mL | concentration at 8 hr ([1]; male, C57BL6/j, mouse, plasma, iv, IV 20 mg/kg, 8 hr, read-out: Plasma Concentration, individual mice): 147 ng/mL | concentration at 12 hr ([1]; male, C57BL6/j, mouse, plasma, iv, IV 20 mg/kg, 12 hr, read-out: Plasma Concentration, Mean): 96.8 ng/mL | Vd ([1]; male, C57BL6/j, mouse, plasma, iv, plasma, IV 20 mg/kg, read-out: Vz): 9.63 L/kg | Vd ([1]; male, C57BL6/j, mouse, plasma, iv, plasma, IV 20 mg/kg, read-out: volume of distribution at terminal phase): 9.63 L/kg | concentration at 0.5 hr ([1]; male, C57BL6/j, mouse, plasma, po, PO 20 mg/kg, 0.5 hr): 286 ng/mL | concentration at 1 hr ([1]; male, C57BL6/j, mouse, plasma, po, PO 20 mg/kg, 1 hr, read-out: Plasma Concentration, Mean): 1390 ng/mL | concentration at 1 hr ([1]; male, C57BL6/j, mouse, plasma, po, PO 20 mg/kg, 1 hr, read-out: Plasma Concentration, individual mice): 1240 ng/mL | concentration at 2 hr ([1]; male, C57BL6/j, mouse, plasma, po, PO 20 mg/kg, 2 hr, read-out: Plasma Concentration, Mean): 935 ng/mL | concentration at 4 hr ([1]; male, C57BL6/j, mouse, plasma, po, PO 20 mg/kg, 4 hr, read-out: Plasma Concentration, Mean): 696 ng/mL | concentration at 4 hr ([1]; male, C57BL6/j, mouse, plasma, po, PO 20 mg/kg, 4 hr, read-out: Plasma Concentration, individual mice): 777 ng/mL | concentration at 8 hr ([1]; male, C57BL6/j, mouse, plasma, po, PO 20 mg/kg, 8 hr, read-out: Plasma Concentration, Mean): 24 ng/mL | concentration at 8 hr ([1]; male, C57BL6/j, mouse, plasma, po, PO 20 mg/kg, 8 hr, read-out: Plasma Concentration, individual mice): 19.1 ng/mL | concentration at 12 hr ([1]; male, C57BL6/j, mouse, plasma, po, PO 20 mg/kg, 12 hr, read-out: Plasma Concentration, Mean): 18.8 ng/mL | concentration at 12 hr ([1]; male, C57BL6/j, mouse, plasma, po, PO 20 mg/kg, 12 hr, read-out: Plasma Concentration, individual mice): 20.2 ng/mL | bioavailability ([1]; male, C57BL6/j, mouse, plasma, PO 20 mg/kg vs IV 20 mg/kg, read-out: F (bioavailability)): 57.1% | AUC(0-inf) [1, 4]: 8490 ng·h/mL | AUC(0-t) [1, 4]: 8100 ng·h/mL | Cmax [1, 4]: 3220 ng/mL | Tmax [1, 4]: 0.5 h | half-life [1, 4]: 2.84 h | MRT inf [1, 4]: 2.67 h | clearance ([1]; male, C57BL6/j, mouse, plasma, IV 20 mg/kg, read-out: systemic clearance (converted)): 39.2 mL/min/kg | AUC(0-inf) [1, 5]: 4850 ng·h/mL | AUC(0-t) [1, 5]: 4810 ng·h/mL | Cmax [1, 5]: 1390 ng/mL | Tmax [1, 5]: 1 h | half-life [1, 5]: 1.57 h | MRT inf [1, 5]: 2.91 h | CLz ([1]; plasma, IV 20 mg/kg): 39.2413 mL/min/kg | postdose observations [2]: No abnormal observations were noted | Brain Concentration, individual mice ([3]; 1 h): 18.92 ng/g | Brain-Plasma Concentration Ratio, individual mice ([3]; 1 h): 0.01 mL/g | Brain Concentration, individual mice ([3]; 2 h): 9.49 ng/g | Brain-Plasma Concentration Ratio, individual mice ([3]; 2 h): 0.01 mL/g | MRT inf (in vivo; iv): 9.91 h | Tmax (in vivo; iv): 0.5 h | half-life (in vivo; iv): 6.41 h | concentration at 0.5 h (in vivo; iv, Brain Concentration, Mean): 96.1 ng/g | concentration at 1 h (in vivo; iv, Brain Concentration, Mean): 85.5 ng/g | concentration at 2 h (in vivo; iv, Brain Concentration, Mean): 73.7 ng/g | concentration at 4 h (in vivo; iv, Brain Concentration, Mean): 48 ng/g | concentration at 8 h (in vivo; iv, Brain Concentration, Mean): 30 ng/g | concentration at 12 h (in vivo; iv, Brain Concentration, Mean): 29.8 ng/g | concentration at 0.5 h (in vivo; [6]): 116 ng/g | concentration at 1 h (in vivo; [6]): 76.6 ng/g | concentration at 2 h (in vivo; [6]): 79.1 ng/g | concentration at 4 h (in vivo; [6]): 34.1 ng/g | Kp at 0.5 hr (in vivo; [7]): 0.03 | Kp at 1 h (in vivo; [7]): 0.08 | Kp at 2 h (in vivo; [7]): 0.07 | Kp at 4 h (in vivo; [7]): 0.13 | Kp at 8 h (in vivo; [7]): 0.23 | Kp at 12 h (in vivo; [7]): 0.44 | Kp at 0.5 hr (in vivo; [8]): 0.03 | Kp at 2 h (in vivo; [8]): 0.09 | Kp at 4 h (in vivo; [8]): 0.17 | Tmax (in vivo; po): 4 h | concentration at 1 h (in vivo; po, Brain Concentration, Mean): 14.9 ng/g | concentration at 2 h (in vivo; po, Brain Concentration, Mean): 12.3 ng/g | concentration at 4 h (in vivo; po, Brain Concentration, Mean): 15.6 ng/g | concentration at 1 h (in vivo; [9]): 10.9 ng/g | concentration at 2 h (in vivo; [9]): 15.1 ng/g | concentration at 4 h (in vivo; [9]): 14.2 ng/g | Kp at 1 h (in vivo; [10]): 0.01 | Kp at 2 h (in vivo; [10]): 0.01 | Kp at 4 hr (in vivo; [10]): 0.02 | Kp at 1 h (in vivo; [11]): 0.01 | Kp at 2 h (in vivo; [11]): 0.01 | Kp at 4 hr (in vivo; [11]): 0.02

CCOc1ccccc1-n1c(C(C)N2CCN(C(=O)COc3ccc(Cl)cc3)CC2)nc2ccccc2c1=O (centres unmarked) [erastin]
EC50 (BJeLR cells; read-out: EC50 (BJELR)): 1800 nM | EC50 (BJeLR cells; read-out: EC50 (BJeLR)): 1780 nM
